This note sets out measurements from patent US10428051B2 (priority 2015, dated 2019).

The target in one assay is human σ1 receptor (Homo sapiens, UniProt Q99720). In words: biochemical. It counts as binding. The arrangement: μ and σ1 dual (binding to the σ1 receptor and the μ-opioid receptor expressed as Ki): key to the marks not given beside the values.
Chain of human σ1 receptor (Q99720 whole entry): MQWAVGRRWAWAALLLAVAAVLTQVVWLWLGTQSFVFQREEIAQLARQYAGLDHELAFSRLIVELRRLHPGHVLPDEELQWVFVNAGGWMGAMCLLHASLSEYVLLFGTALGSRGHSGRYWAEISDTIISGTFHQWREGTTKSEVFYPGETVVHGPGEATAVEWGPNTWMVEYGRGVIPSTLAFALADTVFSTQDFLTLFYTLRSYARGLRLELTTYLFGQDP
Conditions: not given
In turn, `CCC(=O)N(CC1(N2CCN(C(C(=O)OC)c3ccccc3)CC2)CCOCC1)c1ccccn1` (centres unmarked) [Example 180, methyl 2-phenyl-2-(4-(4-((N-(pyridin-2-yl)propionamido)methyl)tetrahydro-2H-pyran-4-yl)piperazin-1-yl)acetate] yielded a Ki greater than 500 nM.

`CCC(=O)N(CC1(N2CCN(Cc3ccccc3)CC2)CCOCC1)c1ccc(F)cn1` [Example 6, N-((4-(4-benzylpiperazin-1-yl)tetrahydro-2H-pyran-4-yl)methyl)-N-(5-fluoropyridin-2-yl)propionamide] had an inhibition constant Ki of less than 500 nM.

As for `CCC(=O)N(CC1(N2CCN(Cc3ccc(C(F)(F)F)nc3)CC2)CC1)c1ccccc1` [Example 113, N-phenyl-N-((1-(4-((6-(trifluoromethyl)pyridin-3-yl)methyl)piperazin-1-yl)cyclopropyl)methyl)propionamide], the “μ and σ1 dual (binding to the σ1 receptor and the μ-opioid receptor expressed as Ki)” value (“μ and σ1 dual” below) is listed as “++”.

`CCC(=O)N(CC1(N2CCN(CCc3ccncc3)CC2)CCOCC1)c1cccc(C(F)(F)F)n1` [Example 206, N-((4-(4-(2-(pyridin-4-yl)ethyl)piperazin-1-yl)tetrahydro-2H-pyran-4-yl)methyl)-N-(6-(trifluoromethyl)pyridin-2-yl)propionamide] registered a Ki of less than 500 nM.

`CCC(=O)N(CC1(N2CCN(Cc3ccccc3)CC2)CCOCC1)c1ccccc1OC` [Example 3, N-((4-(4-benzylpiperazin-1-yl)tetrahydro-2H-pyran-4-yl)methyl)-N-(2-methoxyphenyl)propionamide] returned a Ki of less than 100 nM.

As for `CCC(=O)N(CC1(N2CCN(CCOC(F)(F)F)CC2)CCOCC1)c1cccc(C(F)(F)F)n1` [Example 141, N-((4-(4-(2-(trifluoromethoxy)ethyl)piperazin-1-yl)tetrahydro-2H-pyran-4-yl)methyl)-N-(6-(trifluoromethyl)pyridin-2-yl)propionamide], the inhibitory constant (Ki) was less than 500 nM.

In the case of `CCC(=O)N(CC1(N2CCN(C(C)c3ccc(F)cc3)CC2)CCOCC1)c1cccc(C(F)(F)F)n1` (centres unmarked) [Example 182, N-((4-(4-(1-(4-fluorophenyl)ethyl)piperazin-1-yl)tetrahydro-2H-pyran-4-yl)methyl)-N-(6-(trifluoromethyl)pyridin-2-yl)propionamide], the Ki is less than 500 nM.

`CCC(=O)N(CC1(N2CCN(Cc3ccc(F)c(F)c3)CC2)CC1)c1ccccc1` [Example 117, N-((1-(4-(3,4-difluorobenzyl)piperazin-1-yl)cyclopropyl)methyl)-N-phenylpropionamide]: the inhibition constant Ki was less than 100 nM.

For the molecule `CCOCCN1CCN(C2(CN(C(=O)CC)c3cccc(C#N)n3)CCOC(C)(C)C2)CC1` (centres unmarked) [Example 171, N-(6-cyanopyridin-2-yl)-N-((4-(4-(2-ethoxyethyl)piperazin-1-yl)-2,2-dimethyltetrahydro-2H-pyran-4-yl)methyl)propionamide], the inhibitory constant (Ki) was greater than 500 nM.

Consider `CCC(=O)N(CC1(N2CCN(Cc3ccccc3)CC2)CCOCC1)c1ccc(F)cc1` [Example 81, N-((4-(4-benzylpiperazin-1-yl)tetrahydro-2H-pyran-4-yl)methyl)-N-(4-fluorophenyl)propionamide], for which the inhibition constant (Ki) was less than 500 nM.

With `CCOCCN1CCN(C2(CN(C(=O)CC)c3cccc(C(F)(F)F)n3)CCC2)CC1` [Example 202, N-((1-(4-(2-ethoxyethyl)piperazin-1-yl)cyclobutyl)methyl)-N-(6-(trifluoromethyl)pyridin-2-yl)propionamide], the Ki was less than 500 nM.

With `CCC(=O)N(CC1(N2CCN(CC(C)C)CC2)CCOCC1)c1cccc(C#N)n1` [Example 85, N-(6-cyanopyridin-2-yl)-N-((4-(4-isobutylpiperazin-1-yl)tetrahydro-2H-pyran-4-yl)methyl)propionamide], the Ki was greater than 500 nM.

On to `CCC(=O)N(CC1(N2CCN(Cc3ccccc3)CC2)CCOC2(CCCC2)C1)c1cccc(C(F)(F)F)n1` (centres unmarked) [Example 89, N-((9-(4-benzylpiperazin-1-yl)-6-oxaspiro[4.5]decan-9-yl)methyl)-N-(6-(trifluoromethyl)pyridin-2-yl)propionamide], for which the inhibition constant Ki is less than 100 nM.

`CCC(=O)N(CC1(N2CCN(Cc3ccccc3)CC2)CCOC2(CCCC2)C1)c1ccccn1` (centres unmarked) [Example 17, N-((9-(4-benzylpiperazin-1-yl)-6-oxaspiro[4.5]decan-9-yl)methyl)-N-(pyridin-2-yl)propionamide] gave a Ki of less than 500 nM.

In the case of `CCC(=O)N(CC1(N2CCN(CCC(C)C)CC2)CCOC(C)(C)C1)c1ncccc1F` (centres unmarked) [Example 168, N-(3-fluoropyridin-2-yl)-N-((4-(4-isopentylpiperazin-1-yl)-2,2-dimethyltetrahydro-2H-pyran-4-yl)methyl)propionamide], the “μ and σ1 dual” value is “++”.

As to `CCOCCN1CCN(C2(CN(C(=O)CC)c3ncccc3F)CCOC(C)(C)C2)CC1` (centres unmarked) [Example 169, N-((4-(4-(2-ethoxyethyl)piperazin-1-yl)-2,2-dimethyltetrahydro-2H-pyran-4-yl)methyl)-N-(3-fluoropyridin-2-yl)propionamide], the inhibition constant (Ki) is greater than 500 nM.

Molecule `CCC(=O)N(CC1(N2CCN(CC(C)(C)F)CC2)CCOCC1)c1cccc(C(F)(F)F)n1` [Example 190, N-((4-(4-(2-fluoro-2-methylpropyl)piperazin-1-yl)tetrahydro-2H-pyran-4-yl)methyl)-N-(6-(trifluoromethyl)pyridin-2-yl)propionamide] displayed an inhibitory constant (Ki) of less than 500 nM.

For the molecule `CCC(=O)N(Cc1ccccc1)CC1(N2CCN(Cc3ccccc3)CC2)CCOCC1` [Example 14, N-benzyl-N-((4-(4-benzylpiperazin-1-yl)tetrahydro-2H-pyran-4-yl)methyl)propionamide], the “μ and σ1 dual” value was “++”.

As to `CCC(=O)N(CC1(N2CCN(Cc3ccc(F)cc3)CC2)CCOCC1)c1ccccc1` [Example 105, N-((4-(4-(4-fluorobenzyl)piperazin-1-yl)tetrahydro-2H-pyran-4-yl)methyl)-N-phenylpropionamide], the Ki was less than 100 nM.

Take `CCNC(=O)N(CC(C)(C)N1CCN(Cc2ccccc2)CC1)c1ccccc1` [Example 48, 1-(2-(4-benzylpiperazin-1-yl)-2-methylpropyl)-3-ethyl-1-phenylurea]: the “μ and σ1 dual” value is “++”.

Molecule `CCOCCN1CCC(C2(CN(C(=O)CC)c3cccc(C(F)(F)F)n3)CCOCC2)CC1` [Example 177, N-((4-(1-(2-ethoxyethyl)piperidin-4-yl)tetrahydro-2H-pyran-4-yl)methyl)-N-(6-(trifluoromethyl)pyridin-2-yl)propionamide] came in with a Ki of less than 500 nM.

For `CCC(=O)N(CC1(N2CCN(CC(C)C)CC2)CCOCC1)c1ncccc1F` [Example 158, N-(3-fluoropyridin-2-yl)-N-((4-(4-isobutylpiperazin-1-yl)tetrahydro-2H-pyran-4-yl)methyl)propionamide], the “μ and σ1 dual” value was “++”.

Turning to `CCC(=O)N(CC(C)(C)N1CCN(CCc2ccccc2F)CC1)c1ncccc1F` [Example 69, N-(2-(4-(2-fluorophenethyl)piperazin-1-yl)-2-methylpropyl)-N-(3-fluoropyridin-2-yl)propionamide], the “μ and σ1 dual” value is “++”.

In the case of `CCC(=O)N(CC1(N2CCN(CCOC(C)C)CC2)CCOCC1)c1ncccc1F` [Example 157, N-(3-fluoropyridin-2-yl)-N-((4-(4-(2-isopropoxyethyl)piperazin-1-yl)tetrahydro-2H-pyran-4-yl)methyl)propionamide], the Ki is less than 500 nM.

`CCC(=O)N(CC1(N2CCN(CCOC(C)C)CC2)CCOC(C)(C)C1)c1cccc(C#N)n1` (centres unmarked) [Example 172, N-(6-cyanopyridin-2-yl)-N-((4-(4-(2-isopropoxyethyl)piperazin-1-yl)-2,2-dimethyltetrahydro-2H-pyran-4-yl)methyl)propionamide]: the inhibition constant (Ki) was greater than 500 nM.

For the molecule `CCC(=O)N(CC1(N2CCN(Cc3ccccc3)CC2)CCOCC1)c1ccccc1O` [Example 54, N-((4-(4-benzylpiperazin-1-yl)tetrahydro-2H-pyran-4-yl)methyl)-N-(2-hydroxyphenyl)propionamide], the Ki was less than 500 nM.

For `CCOCCN1CCN(C2(CN(C(=O)CC)c3cccc(C(F)(F)F)n3)CCSCC2)CC1` [Example 205, N-((4-(4-(2-ethoxyethyl)piperazin-1-yl)tetrahydro-2H-thiopyran-4-yl)methyl)-N-(6-(trifluoromethyl)pyridin-2-yl)propionamide], the Ki is less than 500 nM.

As to `CCOCCCN1CCN(C2(CN(C(=O)CC)c3cccc(C(F)(F)F)n3)CCOCC2)CC1` [Example 150, N-((4-(4-(3-ethoxypropyl)piperazin-1-yl)tetrahydro-2H-pyran-4-yl)methyl)-N-(6-(trifluoromethyl)pyridin-2-yl)propionamide], the Ki was less than 500 nM.

On to `CCC(=O)N(CC1(N2CCN(Cc3ccc(F)cn3)CC2)CC1)c1ccccc1` [Example 121, N-((1-(4-((5-fluoropyridin-2-yl)methyl)piperazin-1-yl)cyclopropyl)methyl)-N-phenylpropionamide], for which the inhibition constant (Ki) was greater than 500 nM.

The molecule `CCC(=O)N(CC1(N2CCN(CCOC(C)C)CC2)CCOC(C)(C)C1)c1cccc(C(F)(F)F)n1` (centres unmarked) [Example 161, N-((4-(4-(2-isopropoxyethyl)piperazin-1-yl)-2,2-dimethyltetrahydro-2H-pyran-4-yl)methyl)-N-(6-(trifluoromethyl)pyridin-2-yl)propionamide] registered an inhibition constant (Ki) of less than 500 nM.

Turning to `CCC(=O)N(CC1(N2CCN(C(C)CC)CC2)CCOCC1)c1ccccn1` (centres unmarked) [Example 154, N-((4-(4-sec-butylpiperazin-1-yl)tetrahydro-2H-pyran-4-yl)methyl)-N-(pyridin-2-yl)propionamide], the Ki is greater than 500 nM.

The same assay, now with this note: combined class for both Ki-σ1 (assay A1) and Ki-μ (assay A2); human receptors, radioligand binding; read-out: μ and σ1 dual (binding to the σ1 receptor and the μ-opioid receptor expressed as Ki).
For `CCOc1ccc(N(CC2(N3CCN(Cc4ccccc4)CC3)CCN(C)CC2)C(=O)CC)cc1` [Example 24, N-((4-(4-benzylpiperazin-1-yl)-1-methylpiperidin-4-yl)methyl)-N-(4-ethoxyphenyl)propionamide], the inhibition constant (Ki) was greater than 500 nM.
